Measured values as given in patent US20240300945A1, “CLY SERIES COMPOUND, PREPARATION METHOD THEREFOR AND USE THEREOF IN PREPARATION OF DRUGS” (NANJING WELLBEST PHARMACEUTICAL CO., LTD, priority 2021, published 2024).
Marks after values point to notes of the source that are not given here.

Experiments:
[1] = tested on: rat hair loss model; assay: Rat hair loss (androgenic alopecia) model: hair length; assay type: in vivo, Wistar rats; conditions: for 15-day hair length / 30-day hair length / 45-day hair length / 60-day hair length: rat AGA model; for adverse reactions: rat hair loss model, external use and system application, 60 days
Text: (1) Compound CLY-1, CLY-2, CLY-3, CLY-4, CLY-5, CLY-8, CLY-11, CLY-19, CLY-36, CLY-39 tincture preparation method: 75% ethanol was mixed with appropriate amount of above compounds to prepare a tincture of different concentrations.
(2) Positive treatment drug: 5% minoxidil tincture (trade name: Mandi, Zhejiang Wanma Pharmaceutical Co., Ltd.).
(§1) Wistar rats were, according to weights, randomly divided into the negative control group (75% ethanol for external use), model group (75% ethanol for external use), positive control group (external 5% minoxidil tincture), CLY-1 external treatment group (external 5% CLY-1 tincture), CLY-2 external treatment group (external 5% CLY-2 tincture), CLY-3 external treatment group (external 5% CLY-3 tincture), CLY-4 external treatment group (external 5% CLY-4 tincture), and CLY-5 external treatment group (external 5% CLY-5 tincture) according to their body weight CLY-8 external treatment group (external 5% CLY-8 tincture), CLY-11 external treatment group (external 5% CLY-11 tincture), CLY-19 external treatment group (external 5% CLY-19 tincture), CLY-36 external treatment group (external 5% CLY-36 tincture), CLY-39 external treatment group (external 5% CLY-39 tincture), CLY-1 intravenous injection group (2 mg/kg·d), CLY-3 intravenous injection group (2 mg/kg·d), CLY-4 intravenous injection group (2 mg/kg·d) CLY-5 intravenous injection group (2 mg/kg·d), CLY-8 intravenous injection group (2 mg/kg·d), CLY-11 intravenous injection group (2 mg/kg·d), CLY-19 intravenous injection group (2 mg/kg·d), CLY-36 intravenous injection group (2 mg/kg·d), and CLY-39 intravenous injection group (2 mg/kg·d), with 10 rats in each group. Before the experiment, an area of 4 cm×5 cm was selected on each rat on the back of the neck to remove hair as the observation area. In addition to the negative control group, rats were subcutaneously injected with testosterone propionate injection [5 ml/(kg·d)] once a day for 60 days to establish the androgenic alopecia (AGA) model. […] At the same time, the drug was applied to the observation area on the back of the rats in the corresponding drug group at the rate of 2 mL/(one time), twice a day, at an interval of 8 hours; Intravenous administration once a day. The negative control group and the model control group were smeared with 75% ethanol solution, 2 mL/(one rat per time), twice a day, for 60 days.
Took 10 hairs from the observation area on the back of each rat every 15 days after administration, and measured the hair length with a vernier caliper. After 60 days of administration, the skin of the experimental observation area was taken for routine tissue dehydration, paraffin embedding, HE staining, and light microscopy to observe the histopathological changes of the rat skin hair follicles and sebaceous glands. Semi-quantitative analysis was performed for each group. The grading criteria are as follows: the normal structure of dermal tissue cells, subcutaneous hair follicles, and sebaceous glands is marked as […]: no hyperplasia of dermal tissue is found, the lesions of hair follicles and sebaceous glands are limited, and no inflammation is found under the skin is marked as “+”: no obvious hyperplasia of dermal tissue is found, and the follicles are obviously cystic. No obvious hyperplasia of sebaceous glands is found, and no inflammation is found under the skin is marked as “+”: the dermal tissue has segmental hyperplasia, which is not obvious, A small number of hair follicles have cystic changes, and the sebaceous glands have mild hyperplasia and hypertrophy. There is no obvious inflammation under the skin, which is marked as “++”: the dermal tissue cells of the skin have different degrees of segmental hyperplasia, and some hair follicles have cystic changes, showing uneven size of hair follicles, and no cells around. The sebaceous glands have hyperplasia, and the nuclei in the proliferative glands are few. […]

[2] = tested on: skin hair follicles and sebaceous glands of rats; assay: Rat hair loss model: histopathological grading of skin hair follicles and sebaceous glands; assay type: in vivo, Wistar rats; conditions: 60 days, 10 rats per group; for number of rats with hair follicle and sebaceous gland grade +++: grade +++ (most severe); for number of rats with hair follicle and sebaceous gland grade ±: grade ± (lesions limited); for number of rats with hair follicle and sebaceous gland grade −: grade − (normal structure)
Text: as §1
Took 10 hairs from the observation area on the back of each rat every 15 days after administration, and measured the hair length with a vernier caliper. After 60 days of administration, the skin of the experimental observation area was taken for routine tissue dehydration, paraffin embedding, HE staining, and light microscopy to observe the histopathological changes of the rat skin hair follicles and sebaceous glands. Semi-quantitative analysis was performed for each group. The grading criteria are as follows: the normal structure of dermal tissue cells, subcutaneous hair follicles, and sebaceous glands is marked as […]: no hyperplasia of dermal tissue is found, the lesions of hair follicles and sebaceous glands are limited, and no inflammation is found under the skin is marked as “+”: no obvious hyperplasia of dermal tissue is found, and the follicles are obviously cystic. No obvious hyperplasia of sebaceous glands is found, and no inflammation is found under the skin is marked as “+”: the dermal tissue has segmental hyperplasia, which is not obvious, A small number of hair follicles have cystic changes, and the sebaceous glands have mild hyperplasia and hypertrophy. There is no obvious inflammation under the skin, which is marked as “++”: the dermal tissue cells of the skin have different degrees of segmental hyperplasia, and some hair follicles have cystic changes, showing uneven size of hair follicles, and no cells around. The sebaceous glands have hyperplasia, and the nuclei in the proliferative glands are few. A few rats have mild inflammatory hyperplasia under the skin, which is marked as “+++”.

[3] = external 5% tincture twice a day
[4] = intravenous injection 2 mg/kg·d

Row | SMILES | 15-day hair length [1, 3] | 30-day hair length [1, 3] | 45-day hair length [1, 3] | 60-day hair length [1, 3] | 15-day hair length [1, 4] | 30-day hair length [1, 4] | 45-day hair length [1, 4] | 60-day hair length [1, 4] | adverse reactions [1] | number of rats with hair follicle and sebaceous gland grade +++ ([2]; external 5% tincture) | number of rats with hair follicle and sebaceous gland grade +++ ([2]; intravenous 2 mg/kg·d) | number of rats with hair follicle and sebaceous gland grade ++ ([2]; external 5% tincture) | number of rats with hair follicle and sebaceous gland grade ++ ([2]; intravenous 2 mg/kg·d) | number of rats with hair follicle and sebaceous gland grade + ([2]; external 5% tincture) | number of rats with hair follicle and sebaceous gland grade + ([2]; intravenous 2 mg/kg·d) | number of rats with hair follicle and sebaceous gland grade ± ([2]; external 5% tincture) | number of rats with hair follicle and sebaceous gland grade ± ([2]; intravenous 2 mg/kg·d) | number of rats with hair follicle and sebaceous gland grade − ([2]; external 5% tincture) | number of rats with hair follicle and sebaceous gland grade − ([2]; intravenous 2 mg/kg·d)
1 | CN1CCC[C@@H](N(C(=O)c2ccc(-n3nnc4cccnc43)cc2)c2ncccc2Cl)C1 [CLY-1, (R)-4-(3H-[1,2,3]triazolo[4,5-b]pyridin-3-yl)-N-(3-chloropyridin-2-yl)-N-(1-methylpiperidin-3-yl)benzamide] | 8.3* mm | 9.3* mm | 14.2* mm | 17.6* mm | 8.7* mm | 9.6* mm | 14.6* mm | 17.9* mm | no obvious adverse reactions | 0 | 0 | 1 | 0 | 4 | 4 | 5 | 6 | 0 | 0
2 | CCN1CCC[C@@H](N(C(=O)c2ccc(-n3nnc4cccnc43)cc2)c2ncccc2Cl)C1 [CLY-2, (R)-4-(3H-[1,2,3]triazolo[4,5-b]pyridin-3-yl)-N-(3-chloropyridin-2-yl)-N-(1-ethylpiperidin-3-yl)benzamide] | 9.1* mm | 10.1* mm | 15.3* mm | 18.9* mm | 9.2* mm | 10.3* mm | 15.6* mm | 19.1* mm | no obvious adverse reactions | 0 | 0 | 1 | 0 | 3 | 3 | 6 | 7 | 0 | 0
3 | CNC1CCCC(N(C(=O)c2ccc(-n3nnc4cccnc43)cc2)c2ncccc2Cl)C1 (stereo not drawn) [CLY-3] | 7.5* mm | 8.6* mm | 12.45* mm | 16.3* mm | 7.3* mm | 8.9* mm | 13.9* mm | 16.8* mm | no obvious adverse reactions | 0 | 0 | 1 | 1 | 5 | 4 | 4 | 5 | 0 | 0
